One block for each compound: values may come before it.
Tests used:
[1] = biological target: Melanocortin receptor 4 (Homo sapiens, UniProt P32245); assay: Displacement of 125I-NDP-a-MSH from human Melanocortin receptor 4 after 2 hrs by TopCount microplate scintillation and luminescence counter
[2] = biological target: Histamine H3 receptor (Homo sapiens) (UniProt Q9Y5N1); assay: Partial agonist activity at human histamine H3 receptor expressed in SK-N-MC cells by beta-galactosidase reporter gene assay relative to histamine; type: cell-based
Chain of Histamine H3 receptor (Homo sapiens) (Q9Y5N1 whole entry): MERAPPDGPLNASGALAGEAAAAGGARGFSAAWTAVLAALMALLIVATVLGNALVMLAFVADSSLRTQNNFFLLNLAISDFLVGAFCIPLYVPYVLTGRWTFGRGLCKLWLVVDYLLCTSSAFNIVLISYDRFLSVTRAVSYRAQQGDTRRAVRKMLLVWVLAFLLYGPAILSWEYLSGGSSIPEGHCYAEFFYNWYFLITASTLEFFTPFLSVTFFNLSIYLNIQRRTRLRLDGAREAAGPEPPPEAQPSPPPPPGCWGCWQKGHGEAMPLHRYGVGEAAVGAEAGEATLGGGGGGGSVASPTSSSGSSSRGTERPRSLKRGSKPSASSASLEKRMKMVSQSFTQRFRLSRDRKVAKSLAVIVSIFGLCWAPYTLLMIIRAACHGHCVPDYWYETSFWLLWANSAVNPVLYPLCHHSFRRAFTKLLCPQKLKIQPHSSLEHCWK

[3] = Displacement of 125I-[Sar1, Ile8] AngII from rat AT1 receptor expressed in COS1 cells; type: cell-based; conditions: cos-1
[4] = biological target: Histamine H3 receptor (Homo sapiens) (UniProt Q9Y5N1); assay: Inverse agonist activity at human histamine H3 receptor expressed in SK-N-MC cells by beta-galactosidase reporter gene assay relative to histamine; type: cell-based
[5] = biological target: T1, Type-2 angiotensin II receptor (Homo sapiens, UniProt P50052); assay: Binding affinity to angiotensin II receptor (unknown origin)
T1 sequence (P50052 whole entry): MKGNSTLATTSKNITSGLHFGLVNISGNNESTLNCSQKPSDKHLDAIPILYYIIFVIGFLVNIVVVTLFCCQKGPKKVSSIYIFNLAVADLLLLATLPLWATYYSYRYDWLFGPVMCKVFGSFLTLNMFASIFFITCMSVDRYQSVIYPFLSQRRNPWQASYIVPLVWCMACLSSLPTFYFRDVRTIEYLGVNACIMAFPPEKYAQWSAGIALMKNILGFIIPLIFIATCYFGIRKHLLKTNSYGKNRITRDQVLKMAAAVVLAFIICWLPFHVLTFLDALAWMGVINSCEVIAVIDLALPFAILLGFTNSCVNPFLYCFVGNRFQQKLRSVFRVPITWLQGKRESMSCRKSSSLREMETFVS

[6] = biological target: Vasopressin V2 receptor (Homo sapiens, UniProt P30518); assay: Displacement of [3H]AVP from human Vasopressin V2 receptor expressed in HeLa cells after 2 hrs by liquid scintillation counter; type: cell-based
Chain of Vasopressin V2 receptor (P30518 whole entry): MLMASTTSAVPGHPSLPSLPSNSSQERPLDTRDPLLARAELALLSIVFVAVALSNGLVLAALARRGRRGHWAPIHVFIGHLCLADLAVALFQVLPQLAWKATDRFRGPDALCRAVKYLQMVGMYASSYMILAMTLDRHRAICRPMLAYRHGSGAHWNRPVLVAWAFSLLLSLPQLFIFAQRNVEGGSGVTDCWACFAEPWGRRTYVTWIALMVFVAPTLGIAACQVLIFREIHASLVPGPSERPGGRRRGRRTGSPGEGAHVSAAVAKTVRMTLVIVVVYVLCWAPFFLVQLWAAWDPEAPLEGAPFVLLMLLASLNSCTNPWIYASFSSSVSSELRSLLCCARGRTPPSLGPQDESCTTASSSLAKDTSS

[7] = biological target: T2, B2 bradykinin receptor (Homo sapiens, UniProt P30411); assay: Displacement of [3H]BK from cloned human B2 bradykinin receptor expressed in CHO cells after 2 hrs by liquid scintillation counter; type: cell-based
T2 sequence (P30411 whole entry): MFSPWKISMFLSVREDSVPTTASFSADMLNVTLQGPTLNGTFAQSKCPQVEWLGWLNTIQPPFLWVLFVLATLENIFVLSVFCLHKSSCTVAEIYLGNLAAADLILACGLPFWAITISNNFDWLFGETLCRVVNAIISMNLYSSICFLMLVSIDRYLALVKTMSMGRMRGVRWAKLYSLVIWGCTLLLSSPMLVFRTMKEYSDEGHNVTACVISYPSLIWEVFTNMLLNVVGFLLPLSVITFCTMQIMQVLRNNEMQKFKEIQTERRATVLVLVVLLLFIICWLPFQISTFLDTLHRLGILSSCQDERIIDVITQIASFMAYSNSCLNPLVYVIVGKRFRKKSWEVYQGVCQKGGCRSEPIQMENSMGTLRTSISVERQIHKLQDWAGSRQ

Chain of Melanocortin receptor 4 (P32245 whole entry): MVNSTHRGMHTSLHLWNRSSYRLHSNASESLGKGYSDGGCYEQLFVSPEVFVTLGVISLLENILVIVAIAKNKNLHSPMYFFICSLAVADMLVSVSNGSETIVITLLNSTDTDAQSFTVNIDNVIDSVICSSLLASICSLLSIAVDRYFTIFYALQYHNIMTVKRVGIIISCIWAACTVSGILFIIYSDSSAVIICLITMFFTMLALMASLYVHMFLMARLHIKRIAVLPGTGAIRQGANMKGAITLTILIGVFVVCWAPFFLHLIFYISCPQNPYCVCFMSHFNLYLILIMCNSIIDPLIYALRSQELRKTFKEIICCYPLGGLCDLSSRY

SMILES: c1nc(CCC2CCNCC2)c[nH]1
- Intrinsic activity [2]: 60%

SMILES: CCCc1nc(C(C)(C)O)c(C(N)=O)n1Cc1ccc(-c2ccccc2-c2nnn[nH]2)cc1
- Kd [3]: 0.8 nM

SMILES: c1nc(CCC2CCCNC2)c[nH]1 (stereo not drawn)
- Intrinsic activity [2]: 34%

SMILES: CCCc1nc(C(C)(C)O)c(C(N)=O)n1Cc1ccc(-c2cc(Cc3ccc(O)cc3)ccc2-c2nnn[nH]2)cc1
- Kd [3]: 48 nM

SMILES: CCCc1nc(C(C)(C)O)c(C(=O)O)n1Cc1ccc(-c2cc(Cc3ccc(O)cc3)ccc2-c2nnn[nH]2)cc1
- Kd [3]: 21 nM

SMILES: CCCc1nc(C(C)(C)O)c(C(=O)O)n1Cc1ccc(-c2ccccc2-c2nnn[nH]2)cc1 [OLMESARTAN]
- Kd [3]: 2.3 nM

The next lines start with the values.

- Ki [1]: 2 nM
SMILES: CCN(C(C)=O)C(C)c1ccccc1N1CCN(C(=O)[C@H](CC(=O)N2CCN(C(=O)OC(C)(C)C)CC2)Cc2ccc(Cl)cc2)CC1 (stereo partly drawn)

- Intrinsic activity [4]: 29%
SMILES: c1nc(CCCC2CCCNC2)c[nH]1 (stereo not drawn)

- Ki [5]: 1.5 nM
SMILES: CCCCOC(=O)NS(=O)(=O)c1ccc(CCC)cc1-c1ccc(Cn2c(CC)nc3c(C)cc(C)nc32)cc1

- Ki [1]: 6 nM
SMILES: CCN(C(C)=O)C(C)c1ccccc1N1CCN(C(=O)[C@H](CC(=O)NC2CCC2)Cc2ccc(Cl)cc2)CC1 (stereo partly drawn)

- IC50 [6]: 18 nM
SMILES: Cc1cc(N)ccc1C(=O)N1CCCCc2cc(Cl)ccc21

- Ki [5]: 2.1 nM
SMILES: CCCCOC(=O)NS(=O)(=O)c1ccc(CC(C)C)cc1-c1ccc(Cn2c(CC)nc3c(C)cc(C)nc32)cc1

- IC50 [7]: 0.36 nM
SMILES: Cc1cc(OCc2ccccn2)c2cccc(OCc3c(Cl)ccc(N(C)C(=O)CNC(=O)/C=C/c4ccc(/C=C/c5ccncc5)nc4)c3Cl)c2n1
